This is an account of results in patent US9550742B2, “11-OXO-10,11-dihydrodibenzo[B,F][1,4]thiazepine S-oxide derivatives and their use as dopamine D2 receptor antagonists” (The United States of America, as Represented by the …, priority 2013, dated 2017).

Read-outs that look alike come from different tables or passages of the source. Bounds are passed on as bounds.

One test addresses T1, D2 DAR (Homo sapiens, UniProt P14416).
T1 construct: expressed in transfected cells; host or cells: HEK293 T-REx, Tet-inducible, with chimeric G-protein Gqi5
Nature of the test: D2 Ca^2+ screen assay (calcium accumulation, HEK293 T-REx with Gqi5). In kind it is cell-based. On the procedure:
The resting concentration of calcium ions (Ca^2+) in the cells' cytoplasm is normally maintained in the range of 10-100 nM. To maintain this low concentration, Ca^2+ is actively pumped from the cytosol to the extracellular space and into the endoplasmic reticulum (ER), and sometimes into the mitochondria. Signaling occurs when the cell is stimulated to release Ca^2+ from intracellular stores. The most common signaling pathway that increases cytoplasmic calcium concentration is the phospholipase C (PLC) pathway. […] IP3 diffuses to the ER, binds to its receptor (IP3 receptor), which is a Ca^2+ channel and, thus, releases Ca^2+ from the ER to the cytosol. To measure this cytosolic Ca^2+ accumulation, we used the Screen Quest™ Fluo-8 Calcium Assay Kit (AAT Bioquest, Sunnyvale, Calif.). Acetoxymethyl (AM) esters bound to Fluo-8™ dye are non-polar molecules that easily cross live cell membranes transporting the dye inside the cell, and are then rapidly hydrolyzed by cellular esterases inside live cells. As Fluo-8™ is freed from AM esters, it binds to Ca^2+ and emits a fluorescent signal at 514 nm that escalates with increasing cytosolic Ca^2±. To measure this calcium flux signal, we used the Functional Drug Screening System (FDSS) (Hamamatsu, Japan), a high throughput screening device that allows optical detection of signal transmissions within living cells in a time-resolving fashion. […] Quest Fluo-8™ calcium reagent was freshly prepared prior to adding to the cells (lyophilized Fluo-8™ dye provided with the kit was re-suspended in 200 μL DMSO as a 500× stock and stored at −20° C.). 2 μL/well of Quest Fluo-8™ calcium dye diluted in HBSS +10 mM HEPES buffer (for every 10 mL buffer, 1 mL of 10× quencher provided in the kit and 20 μL of 500×DMSO stock dye were added) was added to cells with a Multi-Drop Combi (ThermoScientific) and incubated for 45-90 min in the dark at ambient temperature. Then, the plates were introduced into the FDSS where they were pinned with 23 nL of test compound or dopamine controls and were read by FDSS in non-stimulated mode for 180 sec for detection of agonists. […]

A further test concerns the target T2, D2 GPCR receptor (DAR) (Homo sapiens, UniProt P14416).
T2 construct: host or cells: CHO PathHunter β-arrestin cells
Nature of the test: D2 beta-arrestin functional assay (PathHunter, CHO). The class given is cell-based. The following applies: for D3/D2 beta-arrestin IC50ratio: ratio of D3 (Example 4) to D2 (Example 2) beta arrestin assay. From the text:
For a secondary-screen and selectivity assays, DAR PathHunter® β-arrestin GPCR cell lines from DiscoveRx (Fremont, Calif.). In this) were used. In the D2 Receptor PathHunter® β-arrestin GPCR cell line, the D2 GPCR receptor (DAR) is overexpressed and fused with a small 42-amino acid fragment of β-galactosidase called ProLink™ on a CHO cellular background expressing a fusion protein of β-arrestin and a larger N-terminal deletion mutant of β-galactosidase (“enzyme acceptor”). When DAR is activated by dopamine, it stimulates binding of β-arrestin to the ProLink-tagged DAR and the two complementary parts of β-galactosidase form a functional enzyme. When substrate (PathHunter® Detection reagent) is added, β-galactosidase hydrolyzes it and generates a chemiluminescent signal.
D2 Receptor PathHunter® β-arrestin cells were seeded at 2,100 cells/well in 3 μL/well media (DiscoveRx Plating Reagent 2) with MultiDrop Combi dispenser (Thermo Scientific, Logan, Utah) onto white tissue culture treated 1,536-well Aurora plates (Brooks Automation, Chelmsford, Mass.) and allowed to attach overnight at 37° C., 5% CO2. Next, 23 nL/well of compound solutions in DMSO were added with a pintool transfer (Kalypsis, San Diego, Calif.). The cells were stimulated by compounds for 90 min at 37° C., 5% CO2, after which 1.5 μL/well of DiscoveRx detection reagent was added with BioRAPTR FRD dispenser. The detection reagent was prepared by mixing of Galacton Star Substrate, Emerald II solution and PathHunter buffer (supplied by the assay kit) together at a 1:5:19 proportion just prior to dispensing. The plates were incubated at ambient temperature for 1 hr, and the luminescent signal was read on a ViewLux plate reader (PerkinElmer, Waltham, Mass.).

Test [1] has as its target D2L human dopamine receptors (Homo sapiens, UniProt P14416). The test is described as follows: D2 binding assay ([^3H]methylspiperone, HEK membranes). The following applies: for D3/D2 binding Ki ratio: ratio of D3 (Example 5) to D2 (Example 3) binding assay. Here is the method: Compounds were tested for differences in affinity between three dopamine receptor subtypes using radio-labeled ligand binding assays. The first assay determined the Ki value of the compounds for the D2 DAR subtype using stable HEK cell lines expressing the D2L human dopamine receptors (Codex Biosciences, Gaithersburg, Md.). Cells were cultured in Dulbecco's modified Eagle's Medium containing 10% FBS, 1,000 units/mL Penicillin, 1,000 mg/mL Streptomycin, 100 mM Sodium Pyruvate, 1 μg/mL Gentamicin, and […] G418. All cells were maintained at 37° C. in 5% CO2 and 90% humidity. For radioligand binding assays, cells were removed mechanically using calcium and magnesium-free Earle's Balanced Salt Solution (EBSS(−)). Intact cells were collected by centrifugation and then lysed with 5 mM Tris-HCl and 5 mM MgCl2 at pH 7.4 in a glass homogenizer. Homogenates were centrifuged at 20,000×g for 30 minutes. The membranes were re-suspended in EBSS (pH 7.4) and protein concentration was determined using a Bradford assay according to the manufacturer's recommendations (Bio-Rad). Membranes were diluted to 24 mg/mL. […] Membrane preparations were incubated for 90 min at room temperature with various concentrations of radioligand in a reaction volume of 250 μL EBSS containing 200 mM sodium metabisulfite. Non-specific binding was determined in the presence of 4 μM (+)-butaclamol. Bound ligand was separated from unbound by filtration through GF/C filters using a PerkinElmer cell harvester with ice cold EBSS (4 washes) and quantified on a Top-count (PerkinElmer) after addition of scintillation solution. […] In order to determine the affinity of a given compound for a receptor type, competition-binding assays were performed. […] Reactions were incubated, terminated, and quantified as indicated above.

The target in test [2] is D3 dopamine receptor (DAR) (Homo sapiens, UniProt P35462). The test is described as follows: D3 beta-arrestin functional assay (PathHunter, CHO). The class given is cell-based. The following applies: dose response curve; read-out: D3 β-arrestin assay AC50.
From the text: A CHO cell line was engineered to overexpress D3 dopamine receptor (DAR) and fused with a small 42-amino acid fragment of β-gal called ProLink™. In addition, these cells stably express a fusion protein of β-arrestin and a larger N-terminal deletion mutant of β-galactosidase (“enzyme acceptor”). When DAR is activated by dopamine, it stimulates binding of β-arrestin to ProLink-tagged DARs, and the two complementary parts of β-galactosidase form a functional enzyme. When substrate (PathHunter® Detection reagent) is added, βgalactosidase hydrolyzes it and generates a chemiluminescent signal.
For the 1,536-well assay, D3 PathHunter® β-arrestin cells were seeded at 2,100 cells/well in 3 μL/well media (DiscoveRx Plating Reagent 2) with MultiDrop Combi dispenser (Thermo Scientific, Logan, Utah) onto white tissue culture treated 1,536-well Aurora plates (Brooks Automation, Chelmsford, Mass.) and allowed to attach overnight at 37° C., 5% CO2. Next, 23 nL/well of compound solutions in DMSO were added with a pintool transfer (Kalypsis, San Diego, Calif.). The cells were stimulated by compounds for 90 minutes at 37° C., 5% CO2, after which 1.5 μL/well of DiscoveRx detection reagent was added with BioRAPTR FRD dispenser. […] The plates were incubated at ambient temperature for 1 h, and the luminescent signal was read on ViewLux plate reader (PerkinElmer, Waltham, Mass.).
Test [3] addresses D3 human dopamine receptors (Homo sapiens, UniProt P35462). Nature of the test: D3 binding assay ([^3H]methylspiperone, HEK293 membranes). On the procedure: Cells were cultured in Dulbecco's modified Eagle's Medium containing 10% FBS, 1,000 units/mL Penicillin, 1,000 mg/mL Streptomycin, 100 mM Sodium Pyruvate, 1 μg/mL Gentamicin, and […] G418. All cells were maintained at 37° C. in 5% CO2 and 90% humidity. For radioligand binding assays, cells were removed mechanically using calcium and magnesium-free Earle's Balanced Salt Solution (EBSS(−)). Intact cells were collected by centrifugation and then lysed with 5 mM Tris-HCl and 5 mM MgCl2 at pH 7.4 in a glass homogenizer. […] Membrane preparations were incubated for 90 min at room temperature with various concentrations of radioligand in a reaction volume of 250 μL EBSS containing 200 mM sodium metabisulfite. […] Bound ligand was separated from unbound by filtration through GF/C filters using a PerkinElmer cell harvester with ice cold EBSS (4 washes) and quantified on a Top-count (PerkinElmer) after addition of scintillation solution. […] In order to determine the affinity of a given compound for a receptor type, competition-binding assays were performed. […] Reactions were incubated, terminated, and quantified as indicated above.

The mark [4] stands for this setting: dopamine D2 calcium release assay of Example 1, read-out: Ca^2+ AC50.

T2 sequence (P14416 whole entry): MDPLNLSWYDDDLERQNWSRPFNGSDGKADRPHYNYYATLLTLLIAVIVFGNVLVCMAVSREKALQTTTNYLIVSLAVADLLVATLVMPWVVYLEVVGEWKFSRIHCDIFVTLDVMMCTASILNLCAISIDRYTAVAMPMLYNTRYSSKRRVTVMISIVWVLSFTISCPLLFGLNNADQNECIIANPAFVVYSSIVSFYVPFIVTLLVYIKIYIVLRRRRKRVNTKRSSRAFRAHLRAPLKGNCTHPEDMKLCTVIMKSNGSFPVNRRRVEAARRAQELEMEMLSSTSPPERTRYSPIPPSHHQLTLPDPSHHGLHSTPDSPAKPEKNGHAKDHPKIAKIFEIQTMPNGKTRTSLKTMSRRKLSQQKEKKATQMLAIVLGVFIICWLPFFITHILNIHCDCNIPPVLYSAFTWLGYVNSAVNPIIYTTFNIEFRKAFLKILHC
Chain of D2L human dopamine receptors (P14416 whole entry): as above
T1 sequence (P14416 whole entry): as above
Chain of D3 dopamine receptor (DAR) (P35462 whole entry): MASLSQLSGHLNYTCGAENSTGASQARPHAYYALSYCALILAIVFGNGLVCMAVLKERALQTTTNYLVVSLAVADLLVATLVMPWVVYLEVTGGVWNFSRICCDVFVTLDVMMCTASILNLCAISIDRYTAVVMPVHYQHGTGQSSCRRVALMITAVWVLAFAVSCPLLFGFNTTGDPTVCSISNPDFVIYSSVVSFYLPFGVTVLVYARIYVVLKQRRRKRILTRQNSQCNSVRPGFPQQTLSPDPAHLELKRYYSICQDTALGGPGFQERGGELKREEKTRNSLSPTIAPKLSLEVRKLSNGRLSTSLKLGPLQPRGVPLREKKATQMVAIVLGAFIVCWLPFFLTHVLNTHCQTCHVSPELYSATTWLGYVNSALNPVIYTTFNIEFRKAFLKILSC
Chain of D3 human dopamine receptors (P35462 whole entry): as above

By AC50 is commonly meant the midpoint of the concentration-response curve, whichever way the signal moves. On to `CN1C(=O)c2ccccc2[S+]([O-])c2ccc(C(=O)NCCc3cccs3)cc21` (racemic) [Compound 32, 10-Methyl-11-oxo-N-(2-(thiophen-2-yl)ethyl)-10,11-dihydrodibenzo[b,f][1,4]thiazepine-8-carboxamide 5-oxide], for which the AC50 at D2 DAR (setting [4]) was below 1000 nM. In addition, on D2 GPCR receptor (DAR), the “D3/D2 beta-arrestin IC50ratio” value is reported as 22.3. For the same compound, the “D3/D2 binding Ki ratio” value in test [1] is recorded as 28.7.

What is called Ki is the dissociation constant of the complex between target and ligand, obtained from inhibition or displacement. A lower Ki goes with higher affinity. As for `CCN1C(=O)c2ccccc2[S+]([O-])c2ccc(C(=O)NCc3ccc(OC)cc3)cc21` (stereo not drawn) [Compound 1, 10-Ethyl-N-(4-methoxybenzyl)-11-oxo-10,11-dihydrodibenzo[b,f][1,4]thiazepine-8-carboxamide 5-oxide], the AC50 on D2 DAR (setting [4]) was below 1000 nM; at D2 DAR (dose response curve, read-out: D2 Ca^2+ assay AC50), 281 nM; on D2 GPCR receptor (DAR) (dose response curve, read-out: D2 β-arrestin assay AC50) it was 2890 nM; in test [2], 5760 nM. Moreover, at D2 GPCR receptor (DAR), the “D3/D2 beta-arrestin IC50ratio” value is given as 2.0. Besides, the Ki was 80 nM in test [1] and 480 nM in test [3]. Besides, in test [1], the “D3/D2 binding Ki ratio” value stood at 6.0.

On to `CCN1C(=O)c2ccccc2[S@+]([O-])c2ccc(C(=O)NCc3ccc(OC)cc3)cc21` [Compound 38, 10-Ethyl-N-(4-methoxybenzyl)-11-oxo-10,11-dihydrodibenzo[b,f][1,4]thiazepine-8-carboxamide 5-(S)-oxide], for which, at D2 DAR (setting [4]), the AC50 was below 1000 nM. Further, the “D3/D2 beta-arrestin IC50ratio” value at D2 GPCR receptor (DAR) is reported as 2.5.

Take `CCN1C(=O)c2ccccc2[S@+]([O-])c2ccc(C(=O)NCc3ccc(F)cc3)cc21` [Compound 47, 10-Ethyl-N-(4-fluorobenzyl)-11-oxo-10,11-dihydrodibenzo[b,f][1,4]thiazepine-8-carboxamide 5-(S)-oxide]: the AC50 at D2 DAR (setting [4]) is below 1000 nM. The “D3/D2 beta-arrestin IC50ratio” value on D2 GPCR receptor (DAR) is 5.6. Further, the “D3/D2 binding Ki ratio” value in test [1] was 2.6.

For `CCN1C(=O)c2ccccc2[S@+]([O-])c2ccc(C(=O)NCc3ccc(C#N)cc3)cc21` [Compound 48, N-(4-Cyanobenzyl)-10-ethyl-11-oxo-10,11-dihydrodibenzo[b,f][1,4]thiazepine-8-carboxamide 5-(S)-oxide], on D2 DAR (setting [4]), the AC50 is below 1000 nM. For the same compound, the “D3/D2 beta-arrestin IC50ratio” value at D2 GPCR receptor (DAR) came out at 6.3. The “D3/D2 binding Ki ratio” value in test [1] is 5.7.

As to `CCN1C(=O)c2ccccc2[S@+]([O-])c2ccc(C(=O)N[C@H](C)c3ccc(Br)cc3)cc21` [Compound 49, (R)-N-(1-(4-Bromophenyl)ethyl)-10-ethyl-11-oxo-10,11-dihydrodibenzo[b,f][1,4]thiazepine-8-carboxamide 5-(S)-oxide], the AC50 on D2 DAR (setting [4]) was below 1000 nM. Moreover, the “D3/D2 beta-arrestin IC50ratio” value at D2 GPCR receptor (DAR) was found to be 7.1. The “D3/D2 binding Ki ratio” value in test [1] is 1.3.

In the case of `CCN1C(=O)c2ccccc2[S@+]([O-])c2ccc(C(=O)N[C@H](C)c3ccc4ccccc4c3)cc21` [Compound 50, (R)-10-Ethyl-N-(1-(naphthalen-2-yl)ethyl)-11-oxo-10,11-dihydrodibenzo[b,f][1,4]thiazepine-8-carboxamide 5-(S)-oxide], the half-maximal activity concentration (AC50) on D2 DAR (setting [4]) is below 1000 nM. Further, on D2 GPCR receptor (DAR), the “D3/D2 beta-arrestin IC50ratio” value is 11.2. The “D3/D2 binding Ki ratio” value in test [1] turned out to be 16.2.

Consider `CN1C(=O)c2ccccc2[S@+]([O-])c2ccc(C(=O)NCc3ccc(Cl)cc3)cc21` [Compound 51, N-(4-Chlorobenzyl)-10-methyl-11-oxo-10,11-dihydrodibenzo[b,f][1,4]thiazepine-8-carboxamide 5-(S)-oxide], for which the AC50 at D2 DAR (setting [4]) was below 1000 nM. Also, the “D3/D2 beta-arrestin IC50ratio” value on D2 GPCR receptor (DAR) amounted to 4.5.

On to `CN1C(=O)c2ccccc2[S@+]([O-])c2ccc(C(=O)NCc3ccc(Br)cc3)cc21` [Compound 52, N-(4-bromobenzyl)-10-methyl-11-oxo-10,11-dihydrodibenzo[b,f][1,4]thiazepine-8-carboxamide 5-(S)-oxide], for which the concentration at half-maximal activity (AC50) at D2 DAR (setting [4]) is below 1000 nM. In addition, the “D3/D2 beta-arrestin IC50ratio” value at D2 GPCR receptor (DAR) amounted to 4.6. Further, the “D3/D2 binding Ki ratio” value in test [1] was 1.5.

With `CN1C(=O)c2ccccc2[S@+]([O-])c2ccc(C(=O)NCc3cccnc3)cc21` [Compound 53, 10-Methyl-11-oxo-N-(pyridin-3-ylmethyl)-10,11-dihydrodibenzo[b,f][1,4]thiazepine-8-carboxamide 5-(S)-oxide], the AC50 on D2 DAR (setting [4]) is below 1000 nM. Besides, on D2 GPCR receptor (DAR), the “D3/D2 beta-arrestin IC50ratio” value is on record as 5.0. For the same compound, in test [1], the “D3/D2 binding Ki ratio” value is 70.0.

On to `CN1C(=O)c2ccccc2[S@+]([O-])c2ccc(C(=O)NCCN3CCCC3)cc21` [Compound 54, 10-Methyl-11-oxo-N-(2-(pyrrolidin-1-yl)ethyl)-10,11-dihydrodibenzo[b,f][1,4]thiazepine-8-carboxamide 5-(S)-oxide], for which, at D2 DAR (setting [4]), the AC50 was below 1000 nM. The “D3/D2 beta-arrestin IC50ratio” value at D2 GPCR receptor (DAR) amounted to 7.2. For the same compound, in test [1], the “D3/D2 binding Ki ratio” value amounted to 1.7.
